The source of these data is patent US20020049185A1, “Malonic acid based matrix metalloproteinase inhibitors” (ROCHE DIAGNOSTICS GMBH, priority 1994, published 2002).

The target in experiment [1] is T1, catalytic domain (Met80-Gly242) of human neutrophil collagenase (Homo sapiens, UniProt P22894).
T1 construct: 8 nM catalytic domain (Met80-Gly242) of human neutrophil collagenase; made in house; host or cells: E. coli
The experiment is described as follows: Enzyme assay: inhibition of cleavage of a fluorogenic substrate by the HNC catalytic domain. The experiment is classed as biochemical. The following applies: HNC (MMP-8) catalytic domain, 25° C., substrate DNP-Pro-Leu-Gly-Leu-Trp-Ala-D-Arg-NH2. Here is the method: In order to determine the inhibition of MMPs, for example HNC, the catalytic domain (isolation and purification see example 1) is incubated with inhibitors having various concentrations. Subsequently, the initial reaction rate in the conversion of a standard substrate is measured in a manner analogous to F. Grams et al. (1993)^51.
The results are evaluated by plotting the reciprocal reaction rate against the concentration of the inhibitor. The inhibition constant (Ki) is obtained as the negative section of the abscissis by the graphical method according to M. Dixon (1953)^28.
The synthetic collagenase substrate is a heptapeptide which is coupled, at the […], with DNP (dinitrophenol). Said DNP residue quenches by steric hindrance the fluorescence of the adjacent tryptophane of the heptapeptide. After cleavage of a tripeptide which includes the DNP group, the tryptophane fluorescence increases. The proteolytic cleavage of the substrate therefore can be measured by the fluorescence value.
The assay was performed at 25° C. in a freshly prepared 50 mM Tris buffer (pH 8.0) treated with dithiozone to remove traces of heavy metals. 4 mM CaCl2 was added and the buffer saturated wtih argon. Stock solutions of adamalysin II were prepared by centrifugation of the protein from an ammonium sulfate suspension and subsequent dissolution in the assay buffer Stock solutions of collagenase were diluted with the assay buffer. Enzyme concentrations were determined by uv measurements (ε280=2.8·10^4 M^−1 cm^−1, ε288·2.2 10^4 M^−1 cm^−1) and the stock solutions were stored in the cold. This solution was diluted 1 100 to obtain the final 16 nM assay concentration. The fluorogenic substrate DNP-ProLeu-Gly-Leu-Trp-Ala-D-Arg-NH2 with a Km of 52 μM was used at a concentration of 21.4 μM, for the Ki determination a 12.8 μM concentration has also been used. Substrate fluorescence was measured at an excitation and emission wavelength of λ=[…], respectively, on a spectrofluorimeter (Perkin Elmer, Model 650-40) equipped with a thermostated cell holder. Substrate hydrolysis was monitored for 10 min. immediately after adding the enzyme. All reactions were performed at least in triplicate. The Ki values of the inhibitors were calculated from the intersection point of the straight lines obtained by the plots of vo/vi vs. [concentration of inhibitor], whereas IC50 values were calculated from plots of vi/vo [concentration of inhibitor] by non-linear regression with simple robust weighting.
50 mM Tris/HCl pH 7.6 (Tris=Tris-(hydroxymethyl)-aminomethan)
8 nM catalytic domain (Met80-Gly242) of human neutrophil collagenase
10 microM DNP-Pro-Leu-Gly-Leu-Trp-Ala-D-Arg-NH2
A solution of the enzyme and inhibitor in assay buffer (25° C.) was prepared. The reaction was started directly by giving the substrate into the solution. The cleavage of the flourogenic substrate was followed by flourescence spectroscopy with an excitation and emision wavelength of 280 and 350 nm, respectively. The IC50 value was calculated as the inhibitor concentration, which is necessary to decrease the velocity of the reaction to the half in comparison to the reaction without inhibitor.

A further experiment concerns the target collagenase (Homo sapiens, UniProt P22894). The experiment is described as follows: Affinity for collagenase (statement in text, HNC complex). The experiment is classed as binding.
The next experiment deals with MMPs. The experiment is described as follows: Inhibition of MMPs. The experiment is classed as biochemical.

Residues, ends and D or L forms follow the SMILES beside them. *: point of attachment. NHOH = ON*

T1 sequence (P22894 100-262): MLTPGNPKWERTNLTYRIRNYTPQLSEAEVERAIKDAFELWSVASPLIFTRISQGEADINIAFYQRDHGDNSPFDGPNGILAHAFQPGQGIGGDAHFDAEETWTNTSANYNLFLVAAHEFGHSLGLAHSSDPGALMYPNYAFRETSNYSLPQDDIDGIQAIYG
collagenase, sequence (P22894 101-467): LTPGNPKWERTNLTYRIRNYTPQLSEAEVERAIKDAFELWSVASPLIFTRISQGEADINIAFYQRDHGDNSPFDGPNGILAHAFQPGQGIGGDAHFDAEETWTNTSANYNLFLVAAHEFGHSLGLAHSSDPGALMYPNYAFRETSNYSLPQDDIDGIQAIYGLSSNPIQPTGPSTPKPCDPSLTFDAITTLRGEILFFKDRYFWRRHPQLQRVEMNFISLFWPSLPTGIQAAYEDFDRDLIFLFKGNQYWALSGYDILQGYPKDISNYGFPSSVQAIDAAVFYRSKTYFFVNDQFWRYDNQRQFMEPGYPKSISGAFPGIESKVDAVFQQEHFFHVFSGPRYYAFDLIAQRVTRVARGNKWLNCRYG

Take `CC(C)CC(C(=O)NO)C(=O)NC(C)C(=O)NCc1ccccc1` (mixture of isomers) [ER014, HONH-iBM-Ala-NHBn]: the IC50 in experiment [1] is 58 µM. On the same count and under the same terms, for `CC(C)CC(C(=O)NO)C(=O)NC(CO)C(=O)NCc1ccccc1` (mixture of isomers) [ER028, HONH-iBM-Ser-NHBn] the value was 40 µM; for `CC(C)CC(C(=O)NO)C(=O)NC(CO)C(=O)NCC(=O)NCc1ccccc1` (mixture of isomers) [ER059, HONH-iBM-Ser-Gly-NHBn], 61 µM. Same read-out and setting: under `CC(C)CC(C(=O)NO)C(=O)NC(CC(N)=O)C(=O)NCc1cccc(N)c1` (mixture of isomers) [ER031, HONH-iBM-Asn-NHBn(m-NH2)] stands 30 µM. The same measure, in the same setting: under `CC(C)CC(C(=O)NO)C(=O)NC(CC(N)=O)C(=O)NCc1ccccc1` (mixture of isomers) [ER017, HONH-iBM-Asn-NHBn] stands 63 µM. With `CC(C)C[C@H](NC(=O)[C@@H]1CCCN1)C(=O)NCC(=O)NO` [PLG-NHOH, L-prolyl-L-leucyl-glycin-hydroxamate] (H-Pro-Leu-Gly-{NHOH}), the “affinity for collagenase (in words)” value on collagenase is recorded as “relatively weak”. With `CC(C)CC(C(=O)NO)C(=O)N[C@@H](C)C(=O)NCC(N)=O` (stereo partly drawn) [ER029, HONH-2-isobutylmalonyl-L-alanyl glycinamide, reference compound], the IC50 in experiment [1] is 139 µM. Besides, in the experiment with MMPs, the “inhibition of MMPs (in words)” value is “very poorly”.

Molecule `CC(C)CC(C(=O)NO)C(=O)NC(Cc1ccccc1)C(=O)NCc1ccccc1` (mixture of isomers) [ER074, HONH-iBM-Phe-NHBn] displayed an IC50 in experiment [1] of 29 µM.

`Cc1ccc(CCNC(=O)C(CCc2ccccc2)NC(=O)C(CC(C)C)C(=O)NO)cc1` (mixture of isomers) [ER070, HONH-iBM-Homophe-NHCH2CH2Ph(p-Me)]: the IC50 in experiment [1] is 1.6 µM.

In general, IC50 refers to the midpoint of a concentration-inhibition curve. Read a low IC50 as inhibition by little substance.
